This note sets out measurements from paper PMC4260654 (Cell host & microbe, 2014).

In one assay the target is RUMGNA_01526 (Mediterraneibacter gnavus, UniProt A7B1V0). As to the kind of experiment: X-ray crystal structure at […] Å. The class given is biochemical. Conditions: read-out: Ki.
For another assay, the target named is T1, CLOSPO_02083 (Clostridium sporogenes, UniProt J7SZ64).
T1 sequence (J7SZ64 1-417): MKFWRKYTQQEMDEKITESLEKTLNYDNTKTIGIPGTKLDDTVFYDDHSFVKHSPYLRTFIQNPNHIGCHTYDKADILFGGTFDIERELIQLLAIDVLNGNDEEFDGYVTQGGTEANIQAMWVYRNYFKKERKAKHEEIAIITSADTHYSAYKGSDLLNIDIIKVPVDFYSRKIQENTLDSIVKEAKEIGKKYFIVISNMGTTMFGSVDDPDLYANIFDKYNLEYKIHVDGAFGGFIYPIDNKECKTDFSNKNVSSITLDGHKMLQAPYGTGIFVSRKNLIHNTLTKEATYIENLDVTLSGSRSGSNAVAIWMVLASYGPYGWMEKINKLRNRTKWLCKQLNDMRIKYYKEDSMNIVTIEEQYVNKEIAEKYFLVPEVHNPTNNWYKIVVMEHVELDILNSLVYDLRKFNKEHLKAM
Put plainly: progress curves of tryptamine production by HPLC, kobs vs [I]. The format is biochemical. Particulars: read-out: Ki.

Turning to `NC(CF)(Cc1c[nH]c2ccccc12)C(=O)O` (stereo in doubt) [I, (S)-α-FMT], the KI (inactivation) worked out at 178 µM on RUMGNA_01526 and 0.2 µM at CLOSPO_02083.
